Test results: ChEMBL document CHEMBL3865812, “Selective killing of cancer cells with triterpenoic acid amides - The substantial role of an aromatic moiety alignment” (Eur J Med Chem, 2016)
pEC50: −log10 of the molar value. Active and inactive are the calls of the source. No cut-off for these calls is given here.

Columns and labels:
[1] = Cytotoxicity against human 518A2 cells measured after 96 hrs by SRB assay; type: functional, cell-based; details: 518A2, 96 h
[2] = Cytotoxicity against human HT-29 cells measured after 96 hrs by SRB assay; type: functional, cell-based; details: HT-29, 96 h
[3] = Cytotoxicity against human MCF7 cells measured after 96 hrs by SRB assay; type: functional, cell-based; details: MCF7, 96 h
[4] = Cytotoxicity against human A549 cells measured after 96 hrs by SRB assay; type: functional, cell-based; details: A549, 96 h
[5] = Cytotoxicity against human A2780 cells measured after 96 hrs by SRB assay; type: functional, cell-based; details: A2780, 96 h
[6] = Cytotoxicity against human 8505C cells measured after 96 hrs by SRB assay; type: functional, cell-based
[7] = Cytotoxicity against mouse NIH/3T3 cells measured after 96 hrs by SRB assay; type: toxicity, NIH3T3
A2780 [8] = assay: Induction of apoptosis in human A2780 cells assessed as increase in apoptotic cells at 6 uM measured after 2 days by Annexin V/FITC/propidium iodide staining-based FACS analysis; type: functional, cell-based
A2780 [9] = assay: Induction of apoptosis in human A2780 cells assessed as secondary necrotic cells at 6 uM measured after 2 days by Annexin V/FITC/propidium iodide staining-based FACS analysis; type: functional, cell-based
[10] = Cell cycle arrest in human A2780 cells assessed as decrease in G1 peak at 6 uM measured after 24 hrs by propidium iodide staining based FACS analysis; type: functional
[11] = Cell cycle arrest in human A2780 cells assessed as accumulation at S-phase at 6 uM measured after 24 hrs by propidium iodide staining based FACS analysis; type: functional
[12] = Cell cycle arrest in human A2780 cells assessed as loss of G2 peak at 6 uM measured after 24 hrs by propidium iodide staining based FACS analysis; type: functional
[13] = Cell cycle arrest in human A2780 cells assessed as decrease in accumulation of cells at S-phase at 6 uM measured after 48 hrs by propidium iodide staining based FACS analysis; type: functional
[14] = Cell cycle arrest in human A2780 cells assessed as sub-G1 peak appearance at 6 uM measured after 48 hrs by propidium iodide staining based FACS analysis; type: functional
[15] = Solubility of compound in water; type: physicochemical; details: buffer

| Compound | pEC50 [1] | pEC50 [2] | pEC50 [3] | pEC50 [4] | pEC50 [5] | pEC50 [6] | EC50 at 96 h [7] [nM] | Activity (A2780 [8]) | Activity (A2780 [9]) | Activity [10] | Activity [11] | Activity [12] | Activity [13] | Activity [14] | solubility [15] |
| --- | --- | --- | --- | --- | --- | --- | --- | --- | --- | --- | --- | --- | --- | --- | --- |
| CC(=O)O[C@H]1C[C@]2(C)[C@H]3CC=C4[C@@H]5CC(C)(C)CC[C@]5(C(=O)Nc5ccncc5)CC[C@@]4(C)[C@]3(C)CC[C@H]2C(C)(C)[C@H]1OC(C)=O | 5.38 | 5.57 | 5.51 | 5.40 | 5.80 | 5.39 | 1800 |  |  |  |  |  |  |  |  |
| CC(=O)O[C@H]1C[C@]2(C)[C@H]3CC=C4[C@@H]5CC(C)(C)CC[C@]5(C(=O)Nc5cnc6ccccc6c5)CC[C@@]4(C)[C@]3(C)CC[C@H]2C(C)(C)[C@H]1OC(C)=O | 5.54 | 5.20 | 5.03 | 5.13 | 5.66 | 5.30 | 900 | Active | Active | Active | Active | Active | Active | Active | Insoluble |
| CC(=O)O[C@H]1C[C@]2(C)[C@H]3CC=C4[C@@H]5CC(C)(C)CC[C@]5(C(=O)Nc5ccnc6ccccc56)CC[C@@]4(C)[C@]3(C)CC[C@H]2C(C)(C)[C@H]1OC(C)=O | 5.62 | 5.39 | 5.37 | 5.38 | 5.70 | 5.47 | 2900 | Active | Active | Active | Active | Active | Active | Active | Insoluble |
| CC(=O)O[C@H]1C[C@]2(C)[C@H]3CC=C4[C@@H]5[C@@H](C)[C@H](C)CC[C@]5(C(=O)Nc5ccnc6ccccc56)CC[C@@]4(C)[C@]3(C)CC[C@H]2C(C)(C)[C@H]1OC(C)=O | 5.19 | 5.26 | 5.40 | 5.09 | 5.46 | 5.18 | 5200 |  |  |  |  |  |  |  | Insoluble |
| C[C@H]1[C@H](C)CC[C@]2(C(=O)O)CC[C@]3(C)C(=CC[C@@H]4[C@@]5(C)C[C@H](O)[C@H](O)C(C)(C)[C@@H]5CC[C@]43C)[C@H]12 | < 4.52 | < 4.52 | 4.54 | < 4.52 | 4.60 | < 4.52 | > 30000 |  |  |  |  |  |  |  |  |
| CC(=O)O[C@H]1C[C@]2(C)[C@H]3CC=C4[C@@H]5CC(C)(C)CC[C@]5(C(=O)Nc5ccc6cccnc6c5)CC[C@@]4(C)[C@]3(C)CC[C@H]2C(C)(C)[C@H]1OC(C)=O | 5.80 | 5.89 | 5.85 | 5.59 | 6.00 | 5.80 | 700 |  |  |  |  |  |  |  | Insoluble |
| CC1(C)CC[C@]2(C(=O)O)CC[C@]3(C)C(=CC[C@@H]4[C@@]5(C)C[C@H](O)[C@H](O)C(C)(C)[C@@H]5CC[C@]43C)[C@@H]2C1 [AUGUSTIC ACID] | 4.59 | < 4.52 | 4.60 |  |  |  | > 30000 |  |  |  |  |  |  |  |  |
| CC(=O)O[C@H]1C[C@]2(C)[C@H]3CC=C4[C@@H]5[C@@H](C)[C@H](C)CC[C@]5(C(=O)Nc5ccc6cccnc6c5)CC[C@@]4(C)[C@]3(C)CC[C@H]2C(C)(C)[C@H]1OC(C)=O | 5.62 | 5.70 | 5.80 | 5.51 | 5.74 | 5.60 | 1800 |  |  |  |  |  |  |  | Insoluble |
| CC(=O)O[C@H]1C[C@]2(C)[C@H]3CC=C4[C@@H]5CC(C)(C)CC[C@]5(C(=O)Nc5cccc6ncccc56)CC[C@@]4(C)[C@]3(C)CC[C@H]2C(C)(C)[C@H]1OC(C)=O | 5.92 | 5.62 | 5.60 | 5.52 | 6.15 | 5.64 | 8600 | Active | Active | Active | Active | Active | Active | Active |  |
| CC(=O)O[C@H]1C[C@]2(C)[C@H]3CC=C4[C@@H]5CC(C)(C)CC[C@]5(C(=O)Nc5cccnc5)CC[C@@]4(C)[C@]3(C)CC[C@H]2C(C)(C)[C@H]1OC(C)=O | 5.77 | 5.66 | 5.70 | 5.55 | 6.05 | 5.64 | 2400 |  |  |  |  |  |  |  |  |
| CC(=O)O[C@H]1C[C@]2(C)[C@H]3CC=C4[C@@H]5[C@@H](C)[C@H](C)CC[C@]5(C(=O)Nc5cccc6ncccc56)CC[C@@]4(C)[C@]3(C)CC[C@H]2C(C)(C)[C@H]1OC(C)=O | 5.70 | 5.44 | 5.26 | 5.43 | 5.57 | 5.49 | > 60000 |  |  |  |  |  |  |  |  |
